Data as given in US8546608B2, “Proteasome inhibitors and methods of using the same” (Cephalon, Inc., priority 2003, dated 2013).
pEC50, pIC50: −log10 of the molar value.

Assays:
[1] = target: T1, 20S Human Erythrocyte Proteasome (HEP) (Homo sapiens, UniProt P20618+P28074); test: Chymotrypsin-like activity of 20S Human Erythrocyte Proteasome (HEP), IC50 determination; assay type: biochemical; conditions: assay of Example C, inhibition of HEP
T1 construct: 20S Human Erythrocyte Proteasome (HEP), purchased from Immatics Biotechnologies Inc; purchased Immatics Biotechnologies Inc., Tübingen, Germany; host or cells: human erythrocytes (natural source)
How it was run: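 20S proteasome at 0.2 μg/mL (about 0.6 nM catalytic sites) in 20 mM Tris with 0.04% SDS, preincubated 15 min at 37° C with inhibitor before Suc-LLVY-AMC (100 μM final). AMC fluorescence read in the linear range; triplicates, IC50 from concentration series.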

[2] = target: T2, proteasome in Molt-4 cells (human leukemia) (Homo sapiens, UniProt P20618+P28074); assay type: cell-based; conditions: assay of Example E, inhibition of MOLT4; read-out: MOLT4 (EC50)
T2 sequence (P28074 60-263): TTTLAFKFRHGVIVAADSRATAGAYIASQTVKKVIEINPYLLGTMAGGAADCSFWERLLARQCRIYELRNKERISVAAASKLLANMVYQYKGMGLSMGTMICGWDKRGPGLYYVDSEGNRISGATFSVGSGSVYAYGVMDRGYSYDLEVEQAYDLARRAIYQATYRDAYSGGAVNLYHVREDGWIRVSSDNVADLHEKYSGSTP
T2 sequence (P20618 29-241): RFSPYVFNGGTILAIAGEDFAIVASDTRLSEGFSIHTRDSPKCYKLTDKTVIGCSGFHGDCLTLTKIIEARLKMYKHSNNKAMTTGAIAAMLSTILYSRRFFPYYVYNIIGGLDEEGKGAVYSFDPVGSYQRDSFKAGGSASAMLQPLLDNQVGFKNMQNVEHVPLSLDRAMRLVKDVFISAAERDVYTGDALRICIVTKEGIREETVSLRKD
How it was run: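 Intact Molt-4 cells (6×10^6 cells/mL) in HEPES-buffered saline were preincubated with inhibitor 15 min at 37 °C, then given cell-permeable MeOSuc-FLF-AFC at 25 μM final.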

pIC50 [1] | pEC50 [2] | Compound
> 8.00 | 5.00 to 5.70 | CC(C)C[C@H](NC(=O)[C@H](CCCNC(=N)N[N+](=O)[O-])NC(=O)C1CC2CCC1C2)B(O)O (stereo partly drawn) [E.2.25, Boronic acid, [(1R)-1-[[(2S)-5-[[imino(nitroamino)methyl]amino]-2-[(bicyclo[2.2.1]heptane-2-carbonyl)amino]-1-oxopentyl]amino]-3-methylbutyl]]
> 8.00 | < 5.00 | CC(C)CCCC(=O)N[C@@H](CCCNC(=N)N[N+](=O)[O-])C(=O)N[C@@H](CC(C)C)B(O)O [E.2.26, Boronic acid, [(1R)-1-[[(2S)-5-[[imino(nitroamino)methyl]amino]-2-[(5-methylhexanoyl)amino]-1-oxopentyl]amino]-3-methylbutyl]]
> 8.00 | < 5.00 | Cc1nc(C)c(C(=O)N[C@@H](CCCNC(=N)N[N+](=O)[O-])C(=O)N[C@@H](CC(C)C)B(O)O)s1 [E.2.27, Boronic acid, [(1R)-1-[[(2S)-5-[[imino(nitroamino)methyl]amino]-2-[(2,4-dimethylthiazole-5-carbonyl)amino]-1-oxopentyl]amino]-3-methylbutyl]]
> 8.00 | < 5.00 | CC(C)C[C@H](NC(=O)[C@H](CCCNC(=N)N[N+](=O)[O-])NC(=O)c1ccoc1)B(O)O [E.2.28, Boronic acid, [(1R)-1-[[(2S)-5-[[imino(nitroamino)methyl]amino]-2-[(furan-3-carbonyl)amino]-1-oxopentyl]amino]-3-methylbutyl]]
> 8.00 | 5.00 to 5.70 | CC(C)C[C@H](NC(=O)[C@H](CCCNC(=N)N[N+](=O)[O-])NC(=O)CC1CCCCCC1)B(O)O [E.2.29, Boronic acid, [(1R)-1-[[(2S)-5-[[imino(nitroamino)methyl]amino]-2-[(2-cycloheptylacetyl)amino]-1-oxopentyl]amino]-3-methylbutyl]]
> 8.00 | < 5.00 | CC(C)CC(=O)N[C@@H](CCCNC(=N)N[N+](=O)[O-])C(=O)N[C@@H](CC(C)C)B(O)O [E.2.31, Boronic acid, [(1R)-1-[[(2S)-5-[[imino(nitroamino)methyl]amino]-2-[(3-methylbutanoyl)amino]-1-oxopentyl]amino]-3-methylbutyl]]
> 8.00 | < 5.00 | CC(C)C[C@H](NC(=O)[C@H](CCCNC(=N)N[N+](=O)[O-])NC(=O)CCc1ccccc1)B(O)O [E.2.32, Boronic acid, [(1R)-1-[[(2S)-5-[[imino(nitroamino)methyl]amino]-2-[(3-phenylpropanoyl)amino]-1-oxopentyl]amino]-3-methylbutyl]]
> 8.00 | 5.00 to 5.70 | Cc1cccc(/C=C/C(=O)N[C@@H](CCCNC(=N)N[N+](=O)[O-])C(=O)N[C@@H](CC(C)C)B(O)O)c1 [E.2.33, Boronic acid, [(1R)-1-[[(2S)-5-[[imino(nitroamino)methyl]amino]-2-[[(E)-3-(3-methylphenyl)acryl]amino]-1-oxopentyl]amino]-3-methylbutyl]]
> 8.00 | 5.00 to 5.70 | CC(C)C[C@H](NC(=O)[C@H](CCCNC(=N)N[N+](=O)[O-])NC(=O)CC12CC3CC(CC(C3)C1)C2)B(O)O [E.2.34]
> 8.00 | < 5.00 | CC(C)C[C@H](NC(=O)[C@H](CCCNC(=N)N[N+](=O)[O-])NC(=O)Cc1ccccc1)B(O)O [E.2.36, Boronic acid, [(1R)-1-[[(2S)-5-[[imino(nitroamino)methyl]amino]-2-[(2-phenylacetyl)amino]-1-oxopentyl]amino]-3-methylbutyl]]
> 8.00 | < 5.00 | COc1ccc(CC(=O)N[C@@H](CCCNC(=N)N[N+](=O)[O-])C(=O)N[C@@H](CC(C)C)B(O)O)cc1 [E.2.37, Boronic acid, [(1R)-1-[[(2S)-5-[[imino(nitroamino)methyl]amino]-2-[[2-(4-methoxyphenyl)acetyl]amino]-1-oxopentyl]amino]-3-methylbutyl]]
> 8.00 | 5.00 to 5.70 | CC(C)C[C@H](NC(=O)[C@H](CCCNC(=N)N[N+](=O)[O-])NC(=O)Cc1ccc(Br)cc1)B(O)O [E.2.38, Boronic acid, [(1R)-1-[[(2S)-5-[[imino(nitroamino)methyl]amino]-2-[[2-(4-bromophenyl)acetyl]amino]-1-oxopentyl]amino]-3-methylbutyl]]
> 8.00 | 5.00 to 5.70 | Cc1ccc(F)c(C(=O)N[C@@H](CCCNC(=N)N[N+](=O)[O-])C(=O)N[C@@H](CC(C)C)B(O)O)c1 [E.2.40, Boronic acid, [(1R)-1-[[(2S)-5-[[imino(nitroamino)methyl]amino]-2-[(2-fluoro-5-methylbenzoyl)amino]-1-oxopentyl]amino]-3-methylbutyl]]
> 8.00 | < 5.00 | CC(C)C[C@H](NC(=O)[C@H](CCCNC(=N)N[N+](=O)[O-])NC(=O)CC1CC2CCC1C2)B(O)O (stereo partly drawn) [E.2.41, Boronic acid, [(1R)-1-[[(2S)-5-[[imino(nitroamino)methyl]amino]-2-[[2-(bicyclo[2.2.1]hept-2-yl)acetyl]amino]-1-oxopentyl]amino]-3-methylbutyl]]
> 8.00 | < 5.00 | CC(C)C[C@H](NC(=O)[C@H](CCCNC(=N)N[N+](=O)[O-])NC(=O)CCCOc1ccccc1)B(O)O [E.2.42, Boronic acid, [(1R)-1-[[(2S)-5-[[imino(nitroamino)methyl]amino]-2-[(4-phenoxybutanoyl)amino]-1-oxopentyl]amino]-3-methylbutyl]]
> 8.00 | > 6.70 | CCCCCCCCCCCCC(=O)N[C@@H](CCCNC(=N)N[N+](=O)[O-])C(=O)N[C@@H](CC(C)C)B(O)O [E.2.45, Boronic acid, [(1R)-1-[[(2S)-5-[[imino(nitroamino)methyl]amino]-2-[(tridecanoyl)amino]-1-oxopentyl]amino]-3-methylbutyl]]
> 8.00 | 5.70 to 6.70 | CC(C)C[C@H](NC(=O)[C@H](CCCNC(=N)N[N+](=O)[O-])NC(=O)CCCCCCCc1ccccc1)B(O)O [E.2.46, Boronic acid, [(1R)-1-[[(2S)-5-[[imino(nitroamino)methyl]amino]-2-[(8-phenyloctanoyl)amino]-1-oxopentyl]amino]-3-methylbutyl]]
> 8.00 | < 5.00 | CC(C)C[C@H](NC(=O)[C@H](CCCNC(=N)N[N+](=O)[O-])NC(=O)CCC(=O)c1ccc(S(C)(=O)=O)cc1)B(O)O [E.2.47, Boronic acid, [(1R)-1-[[(2S)-5-[[imino(nitroamino)methyl]amino]-2-[[4-(4-methanesulfonylphenyl)-4-oxobutanoyl]amino]-1-oxopentyl]amino]-3-methylbutyl]]
> 8.00 | 5.70 to 6.70 | CC(C)C[C@H](NC(=O)[C@H](CCCNC(=N)N[N+](=O)[O-])NC(=O)CCSc1ccc2ccccc2c1)B(O)O [E.2.48, Boronic acid, [(1R)-1-[[(2S)-5-[[imino(nitroamino)methyl]amino]-2-[[3-(naphthalen-2-ylsulfanyl)-propanoyl]amino]-1-oxopentyl]amino]-3-methylbutyl]]
> 8.00 | < 5.00 | CC(C)C[C@H](NC(=O)[C@H](CCCNC(=N)N[N+](=O)[O-])NC(=O)CSCc1ccccc1)B(O)O [E.2.49, Boronic acid, [(1R)-1-[[(2S)-5-[[imino(nitroamino)methyl]amino]-2-[[2-[(phenylmethyl)sulfanyl]acetyl]amino]-1-oxopentyl]amino]-3-methylbutyl]]
> 8.00 | < 5.00 | CSCCC(=O)N[C@@H](CCCNC(=N)N[N+](=O)[O-])C(=O)N[C@@H](CC(C)C)B(O)O [E.2.50, Boronic acid, [(1R)-1-[[(2S)-5-[[imino(nitroamino)methyl]amino]-2-[(3-Methylsulfanylpropanoyl)amino]-1-oxopentyl]amino]-3-methylbutyl]]
> 7.00 | < 5.00 | CC(=O)N1CCC[C@H]1C(=O)N[C@@H](CCCNC(=N)N[N+](=O)[O-])C(=O)N[C@@H](CC(C)C)B(O)O [E.2.51, Boronic acid, [(1R)-1-[[(2S)-5-[[imino(nitroamino)methyl]amino]-2-[((2S)-1-acetylpyrrolidine-2-carbonyl)amino]-1-oxopentyl]amino]-3-methylbutyl]]
> 8.00 | 5.00 to 5.70 | CC(C)C[C@H](NC(=O)[C@H](CCCNC(=N)N[N+](=O)[O-])NC(=O)/C=C/c1ccccc1Br)B(O)O [E.2.52, Boronic acid, [(1R)-1-[[(2S)-5-[[imino(nitroamino)methyl]amino]-2-[[trans-3-(2-bromophenyl)acryl]amino]-1-oxopentyl]amino]-3-methylbutyl]]
> 7.00 | < 5.00 | CC(C)C[C@H](NC(=O)[C@H](CCCNC(=N)N[N+](=O)[O-])NC(=O)Cn1cnnn1)B(O)O [E.2.53, Boronic acid, [(1R)-1-[[(2S)-5-[[imino(nitroamino)methyl]amino]-2-[[2-(tetrazol-1-yl)acetyl]amino]-1-oxopentyl]amino]-3-methylbutyl]]
